In paper PMC5917001, “Counter-ion effect on antistaphylococcal activity and cytotoxicity of selected antimicrobial peptides” (Amino Acids, 2018):
Where no end group is shown, it is not given here.

What was measured:
[1] = tested on: S. aureus (29): reference (5) and clinical (24) strains; settings: for Mean value of MIC: mean over 29 S. aureus strains (Table 5)
Protocol: Microbiological assays were performed using reference and clinical strains of Staphylococcus aureus. Minimal inhibitory concentrations (MIC) were determined by broth microdilution method on 96-well polystyrene plates according to Clinical and Laboratory Standards Institute (CLSI) recommendations [Clinical and Laboratory Standards Institute (CLSI) [2012]]. […] All plates were incubated for 18 h at 37 °C. […] Reference strains of S. aureus: ATCC 6538, ATCC 6538/P, ATCC 9144, ATCC 12598, and ATCC 25923 were obtained from the Polish Collection of Microorganisms (PCM, Polish Academy of Sciences, Wrocław), whereas 24 clinical strains were isolated from the patients of the Clinic of Dermatology, Venereology and Allergology (Medical University of Gdańsk). Nine strains were characterized as methicillin-resistant (MRSA). Preliminary identification and detection was conducted on the ChromID MRSA/ChromID S. aureus biplate (bioMérieux) for the simultaneous detection of S. aureus and methicillin-resistant S. aureus (MRSA). All experiments were conducted at least in triplicate.
To asses an overall activity of peptides, the mean MIC values were calculated.

[2] = tested on: S. aureus ATCC 12598; type: cell-based, Staphylococcus aureus; settings: ATCC 12598, reference strain; broth microdilution, 0.5 × 10^5 CFU/mL, 18 h, 37 °C, at least triplicate
Protocol: (§1) Microbiological assays were performed using reference and clinical strains of Staphylococcus aureus. Minimal inhibitory concentrations (MIC) were determined by broth microdilution method on 96-well polystyrene plates according to Clinical and Laboratory Standards Institute (CLSI) recommendations [Clinical and Laboratory Standards Institute (CLSI) [2012]]. For this purpose, the initial inoculums of 0.5 × 10^5 CFU/mL of bacteria were exposed to a range of concentrations of the peptides (0.5–256 µg/mL). All plates were incubated for 18 h at 37 °C. MIC was taken as the lowest concentration of the compound at which the growth of bacteria was not observed. Reference strains of S. aureus: ATCC 6538, ATCC 6538/P, ATCC 9144, ATCC 12598, and ATCC 25923 were obtained from the Polish Collection of Microorganisms (PCM, Polish Academy of Sciences, Wrocław), whereas 24 clinical strains were isolated from the patients of the Clinic of Dermatology, Venereology and Allergology (Medical University of Gdańsk). Nine strains were characterized as methicillin-resistant (MRSA). Preliminary identification and detection was conducted on the ChromID MRSA/ChromID S. aureus biplate (bioMérieux) for the simultaneous detection of S. aureus and methicillin-resistant S. aureus (MRSA). All experiments were conducted at least in triplicate.

[3] = tested on: S. aureus 015N (MRSA); type: cell-based, Staphylococcus aureus; settings: clinical strain, broth microdilution, 0.5 × 10^5 CFU/mL, 18 h, 37 °C, at least triplicate
Protocol: as §1

[4] = tested on: S. aureus ATCC 6538; type: cell-based, Staphylococcus aureus; settings: ATCC 6538, reference strain; broth microdilution, 0.5 × 10^5 CFU/mL, 18 h, 37 °C, at least triplicate
Protocol: as §1

[5] = tested on: S. aureus 024N (MRSA); type: cell-based, Staphylococcus aureus; settings: clinical strain, broth microdilution, 0.5 × 10^5 CFU/mL, 18 h, 37 °C, at least triplicate
Protocol: as §1

[6] = tested on: S. aureus 004N (MRSA); type: cell-based, Staphylococcus aureus; settings: clinical strain, broth microdilution, 0.5 × 10^5 CFU/mL, 18 h, 37 °C, at least triplicate
Protocol: as §1

[7] = tested on: S. aureus K19N; type: cell-based, Staphylococcus aureus; settings: clinical strain, broth microdilution, 0.5 × 10^5 CFU/mL, 18 h, 37 °C, at least triplicate
Protocol: as §1

[8] = tested on: S. aureus 001N (MRSA); type: cell-based, Staphylococcus aureus; settings: clinical strain, broth microdilution, 0.5 × 10^5 CFU/mL, 18 h, 37 °C, at least triplicate
Protocol: as §1

[9] = tested on: S. aureus 043SC (MRSA); type: cell-based, Staphylococcus aureus; settings: clinical strain, broth microdilution, 0.5 × 10^5 CFU/mL, 18 h, 37 °C, at least triplicate
Protocol: as §1

[10] = tested on: S. aureus ATCC 6538/P; type: cell-based, Staphylococcus aureus; settings: reference strain, broth microdilution, 0.5 × 10^5 CFU/mL, 18 h, 37 °C, at least triplicate
Protocol: as §1

[11] = tested on: S. aureus K50S; type: cell-based, Staphylococcus aureus; settings: clinical strain, broth microdilution, 0.5 × 10^5 CFU/mL, 18 h, 37 °C, at least triplicate
Protocol: as §1

[12] = tested on: S. aureus 060S; type: cell-based, Staphylococcus aureus; settings: clinical strain, broth microdilution, 0.5 × 10^5 CFU/mL, 18 h, 37 °C, at least triplicate
Protocol: as §1

[13] = tested on: S. aureus 017N (MRSA); type: cell-based, Staphylococcus aureus; settings: clinical strain, broth microdilution, 0.5 × 10^5 CFU/mL, 18 h, 37 °C, at least triplicate
Protocol: as §1

[14] = tested on: S. aureus 002N; type: cell-based, Staphylococcus aureus; settings: clinical strain, broth microdilution, 0.5 × 10^5 CFU/mL, 18 h, 37 °C, at least triplicate
Protocol: as §1

[15] = tested on: S. aureus ATCC 9144; type: cell-based, Staphylococcus aureus; settings: ATCC 9144, reference strain; broth microdilution, 0.5 × 10^5 CFU/mL, 18 h, 37 °C, at least triplicate
Protocol: as §1

[16] = tested on: S. aureus ATCC 25923; type: cell-based, Staphylococcus aureus; settings: ATCC 25923, reference strain; broth microdilution, 0.5 × 10^5 CFU/mL, 18 h, 37 °C, at least triplicate
Protocol: as §1

[17] = tested on: S. aureus 045N; type: cell-based, Staphylococcus aureus; settings: clinical strain, broth microdilution, 0.5 × 10^5 CFU/mL, 18 h, 37 °C, at least triplicate
Protocol: as §1

[18] = tested on: S. aureus 001S (MRSA); type: cell-based, Staphylococcus aureus; settings: clinical strain, broth microdilution, 0.5 × 10^5 CFU/mL, 18 h, 37 °C, at least triplicate
Protocol: as §1

[19] = tested on: S. aureus 002S; type: cell-based, Staphylococcus aureus; settings: clinical strain, broth microdilution, 0.5 × 10^5 CFU/mL, 18 h, 37 °C, at least triplicate
Protocol: as §1

[20] = tested on: S. aureus 005S; type: cell-based, Staphylococcus aureus; settings: clinical strain, broth microdilution, 0.5 × 10^5 CFU/mL, 18 h, 37 °C, at least triplicate
Protocol: as §1

[21] = tested on: S. aureus 051S; type: cell-based, Staphylococcus aureus; settings: clinical strain, broth microdilution, 0.5 × 10^5 CFU/mL, 18 h, 37 °C, at least triplicate
Protocol: as §1

[22] = tested on: S. aureus 013S; type: cell-based, Staphylococcus aureus; settings: clinical strain, broth microdilution, 0.5 × 10^5 CFU/mL, 18 h, 37 °C, at least triplicate
Protocol: as §1

[23] = tested on: S. aureus 051N (MRSA); type: cell-based, Staphylococcus aureus; settings: clinical strain, broth microdilution, 0.5 × 10^5 CFU/mL, 18 h, 37 °C, at least triplicate
Protocol: as §1

[24] = tested on: S. aureus 053N; type: cell-based, Staphylococcus aureus; settings: clinical strain, broth microdilution, 0.5 × 10^5 CFU/mL, 18 h, 37 °C, at least triplicate
Protocol: as §1

[25] = tested on: S. aureus 017S (MRSA); type: cell-based, Staphylococcus aureus; settings: clinical strain, broth microdilution, 0.5 × 10^5 CFU/mL, 18 h, 37 °C, at least triplicate
Protocol: as §1

[26] = tested on: S. aureus K46N; type: cell-based, Staphylococcus aureus; settings: clinical strain, broth microdilution, 0.5 × 10^5 CFU/mL, 18 h, 37 °C, at least triplicate
Protocol: as §1

[27] = tested on: S. aureus 039N; type: cell-based, Staphylococcus aureus; settings: clinical strain, broth microdilution, 0.5 × 10^5 CFU/mL, 18 h, 37 °C, at least triplicate
Protocol: as §1

[28] = tested on: S. aureus 048S; type: cell-based, Staphylococcus aureus; settings: clinical strain, broth microdilution, 0.5 × 10^5 CFU/mL, 18 h, 37 °C, at least triplicate
Protocol: as §1

[29] = tested on: S. aureus 030N; type: cell-based, Staphylococcus aureus; settings: clinical strain, broth microdilution, 0.5 × 10^5 CFU/mL, 18 h, 37 °C, at least triplicate
Protocol: as §1

[30] = tested on: S. aureus 033N; type: cell-based, Staphylococcus aureus; settings: clinical strain, broth microdilution, 0.5 × 10^5 CFU/mL, 18 h, 37 °C, at least triplicate
Protocol: as §1

FLPLIGRVLSGIL-NH2 [Temporin A AcO^−]
Mean value of MIC [1]: 4.2 µg/mL

FLPLIGRVLSGIL-NH2 [Temporin A Cl^−]
Mean value of MIC [1]: 5.7 µg/mL | Mean MIC values ([1]; mean over 29 S. aureus strains, as repeated in Table 6): 5.7 µg/mL | MIC [2]: 4 µg/mL | MIC [3]: 8 µg/mL | MIC [4]: 4 µg/mL | MIC [5]: 4 µg/mL | MIC [6]: 4 µg/mL | MIC [7]: 8 µg/mL | MIC [8]: 8 µg/mL | MIC [9]: 8 µg/mL | MIC [10]: 8 µg/mL | MIC [11]: 4 µg/mL | MIC [12]: 4 µg/mL | MIC [13]: 8 µg/mL | MIC [14]: 4 µg/mL | MIC [15]: 8 µg/mL | MIC [16]: 4 µg/mL | MIC [17]: 8 µg/mL | MIC [18]: 4 µg/mL | MIC [19]: 4 µg/mL | MIC [20]: 4 µg/mL | MIC [21]: 8 µg/mL | MIC [22]: 4 µg/mL | MIC [23]: 8 µg/mL | MIC [24]: 4 µg/mL | MIC [25]: 8 µg/mL | MIC [26]: 8 µg/mL | MIC [27]: 4 µg/mL | MIC [28]: 4 µg/mL | MIC [29]: 4 µg/mL | MIC [30]: 4 µg/mL

FLPLIGRVLSGIL-NH2 [Temporin A TFA^−]
Mean value of MIC [1]: 5.9 µg/mL

GIGKFLKKAKKFGKAFVKILKK-NH2 [Pexiganan Cl^−]
Mean value of MIC [1]: 7.4 µg/mL

GIGKFLKKAKKFGKAFVKILKK-NH2 [Pexiganan TFA^−]
Mean value of MIC [1]: 8.4 µg/mL
